In ChEMBL document CHEMBL4627278, “Discovery of 2-aminoisobutyric acid ethyl ester (AIBEE) phosphoramidate prodrugs for delivering nucleoside HCV NS5B polymerase inhibitors” (Bioorg Med Chem Lett, 2020):
Values after ≈ are worked out from the molar mass of the structure shown.

Assays:
[1] = Prodrug conversion in dog liver assessed as (2S)-2-((((2R,3R,4R,5R)-4-bromo-4-chloro-5-(2,4-dioxo-3,4-dihydropyrimidin-1(2H)-yl)-3-hydroxytetrahydrofuran-2-yl)methoxy)(hydroxy)phosphorylamino)propanoic acid level at 5 mg/kg, po after 4 hrs; assay type: ADME, organism-based, Canis lupus familiaris; conditions: in vivo
[2] = Prodrug conversion in dog liver assessed as nucleotide triphosphate level at 5 mg/kg, po measured after 24 hrs; assay type: ADME, organism-based, Canis lupus familiaris; conditions: in vivo
[3] = Prodrug conversion in dog liver assessed as 1-((2R,3R,4R,5R)-3-bromo-3-chloro-4-hydroxy-5-(hydroxymethyl)tetrahydrofuran-2-yl)pyrimidine-2,4(1H,3H)-dione level at 5 mg/kg, po after 4 hrs; assay type: ADME, organism-based, Canis lupus familiaris; conditions: in vivo
[4] = Aqueous solubility of compound at pH 7.4; assay type: physicochemical; conditions: buffer
[5] = Prodrug conversion in human hepatocytes assessed as nucleotide triphosphate level at 100 uM after 4 hrs; assay type: ADME, cell-based, Hepatocyte
[6] = Prodrug conversion in dog liver assessed as nucleotide triphosphate level at 5 mg/kg, po after 4 hrs; assay type: ADME, organism-based, Canis lupus familiaris; conditions: in vivo
[7] = Prodrug conversion in human hepatocytes assessed as nucleotide triphosphate level at 100 uM incubated for 4 hrs followed by compound washout and further incubated in fresh media for 24 hrs; assay type: ADME, cell-based, Hepatocyte
[8] = Prodrug conversion in dog liver assessed as (2S)-2-((((2R,3R,4R,5R)-4-bromo-4-chloro-5-(2,4-dioxo-3,4-dihydropyrimidin-1(2H)-yl)-3-hydroxytetrahydrofuran-2-yl)methoxy)(hydroxy)phosphorylamino)propanoic acid level at 5 mg/kg, po after 24 hrs; assay type: ADME, organism-based, Canis lupus familiaris; conditions: in vivo
[9] = Prodrug conversion in dog liver assessed as 1-((2R,3R,4R,5R)-3-bromo-3-chloro-4-hydroxy-5-(hydroxymethyl)tetrahydrofuran-2-yl)pyrimidine-2,4(1H,3H)-dione level at 5 mg/kg, po after 24 hrs; assay type: ADME, organism-based, Canis lupus familiaris; conditions: in vivo
[10] = Prodrug conversion in dog liver assessed as nucleotide triphosphate level at 5 mg/kg, po co-dosed with 5 mg/kg sofosbuvir after 24 hrs; assay type: ADME, organism-based, Canis lupus familiaris; conditions: in vivo
[11] = Prodrug conversion in dog liver assessed as 2-((((2R,3R,4R,5R)-4-bromo-4-chloro-5-(2,4-dioxo-3,4-dihydropyrimidin-1(2H)-yl)-3-hydroxytetrahydrofuran-2-yl)methoxy)(hydroxy)phosphorylamino)-2-methylpropanoic acid level at 5 mg/kg, po after 4 hrs; assay type: ADME, organism-based, Canis lupus familiaris; conditions: in vivo
[12] = Stability in human plasma assessed as parent compound remaining after 4 hrs; assay type: ADME, cell-free; conditions: read-out: Stability
[13] = Stability in dog plasma assessed as parent compound remaining after 4 hrs; assay type: ADME, cell-free, Canis lupus familiaris; conditions: read-out: Stability
[14] = Prodrug conversion in dog liver assessed as 2-((((2R,3R,4R,5R)-4-bromo-4-chloro-5-(2,4-dioxo-3,4-dihydropyrimidin-1(2H)-yl)-3-hydroxytetrahydrofuran-2-yl)methoxy)(hydroxy)phosphorylamino)-2-methylpropanoic acid level at 5 mg/kg, po after 24 hrs; assay type: ADME, organism-based, Canis lupus familiaris; conditions: in vivo
[15] = Prodrug conversion in dog liver assessed as nucleotide triphosphate level at 5 mg/kg, po co-dosed with 5 mg/kg sofosbuvir after 4 hrs; assay type: ADME, organism-based, Canis lupus familiaris; conditions: in vivo
[16] = Intrinsic clearance in human hepatocytes; assay type: ADME, cell-based, Hepatocyte; conditions: read-out: CLH (converted)
[17] = Half life in human hepatocytes; assay type: ADME, cell-based, Hepatocyte
[18] = Lipophilicity, log D of compound; assay type: physicochemical; conditions: octanol/water
[19] = Cytotoxicity against human HuH7 cells assessed as reduction in cell viability; assay type: cell-based, Huh-7; conditions: read-out: TD50 (the source's name)

Compound	Drug metabolism [1]	Drug metabolism [2]	Drug metabolism [3]	solubility [4]	Drug metabolism [5]	Drug metabolism [6]	Drug metabolism [7]	Drug metabolism [8]	Drug metabolism [9]	Drug metabolism [10]	Drug metabolism [11]	remaining at 4 h [12]	remaining at 4 h [13]	Drug metabolism [14]	Drug metabolism [15]	CLint scaled [16]	half-life [17]	logD [18]	CC50 [19]
CCOC(=O)C(C)(C)NP(=O)(OC[C@H]1O[C@@H](n2ccc(=O)[nH]c2=O)[C@](Cl)(Br)[C@@H]1O)Oc1ccccc1 (stereo partly drawn)	0.232 µg/g	4.56 µg/g	1.335 µg/g	> 200 µM	2114 µM	14.73 µg/g	43 µM	0.065 µg/g	0.192 µg/g	3.47 µg/g	0.232 µg/g	103%	111%	0.065 µg/g	4.02 µg/g	685 mL/min/kg	> 30 min	–	–
CCOC(=O)[C@H](C)N[P@@](=O)(OC[C@H]1O[C@@H](n2ccc(=O)[nH]c2=O)[C@](Cl)(Br)[C@@H]1O)Oc1ccccc1	–	–	–	–	738 µM	–	39 µM	–	–	–	–	–	–	–	–	185 mL/min/kg	> 30 min	–	–
CC(C)OC(=O)[C@H](C)N[P@](=O)(OC[C@H]1O[C@@H](n2ccc(=O)[nH]c2=O)[C@](Cl)(Br)[C@@H]1OC(=O)[C@@H](N)C(C)C)Oc1ccccc1	0.359 µg/g	0.409 µg/g	0.341 µg/g	> 200 µM	169 µM	0.828 µg/g	24 µM	0.006 µg/g	0.029 µg/g	2.89 µg/g	0.359 µg/g	–	–	0.006 µg/g	3.1 µg/g	–	> 30 min	–	–
COc1cccc(O[P@](=O)(N[C@@H](C)C(=O)OC(C)C)OC[C@H]2O[C@@H](n3ccc(=O)[nH]c3=O)[C@](Cl)(Br)[C@@H]2O)c1	–	–	–	20 µM (≈ 12.8 µg/mL)	35 µM	–	14 µM	–	–	–	–	–	–	–	–	335 mL/min/kg	> 30 min	–	–
CC(C)OC(=O)[C@H](C)N[P@@](=O)(OC[C@H]1O[C@@H](n2ccc(=O)[nH]c2=O)[C@](Cl)(Br)[C@@H]1O)Oc1ccccc1	0.644 µg/g	0.036 µg/g	0.501 µg/g	> 200 µM	107 µM	0.143 µg/g	24 µM	< 0.005 µg/g	0.009 µg/g	1.26 µg/g	0.644 µg/g	–	–	< 0.005 µg/g	1.76 µg/g	202 mL/min/kg	> 30 min	–	–
CCOC(=O)[C@H](C)NP(=O)(OC[C@H]1O[C@@H](n2ccc(=O)[nH]c2=O)[C@](Cl)(Br)[C@@H]1O)Oc1ccccc1 (stereo partly drawn)	0.357 µg/g	0.629 µg/g	0.821 µg/g	–	–	1.24 µg/g	–	0.007 µg/g	< 0.025 µg/g	3.18 µg/g	0.357 µg/g	86%	93%	0.007 µg/g	3.87 µg/g	–	–	–	–
CC(C)C(=O)OC[C@H](C)NP(=O)(OC[C@H]1O[C@@H](n2ccc(=O)[nH]c2=O)[C@](Cl)(Br)[C@@H]1O)Oc1ccccc1 (stereo partly drawn)	0.151 µg/g	0.037 µg/g	0.177 µg/g	> 200 µM	2377 µM	0.252 µg/g	32 µM	< 0.005 µg/g	0.006 µg/g	1.12 µg/g	0.151 µg/g	0%	54%	< 0.005 µg/g	3.04 µg/g	–	> 30 min	–	–
COCC(=O)OC[C@H](C)NP(=O)(OC[C@H]1O[C@@H](n2ccc(=O)[nH]c2=O)[C@](Cl)(Br)[C@@H]1O)Oc1ccccc1 (stereo partly drawn)	–	–	–	–	120 µM	–	16 µM	–	–	–	–	–	–	–	–	223 mL/min/kg	> 30 min	–	–
CC(C)OC(=O)[C@H](C)N[P@](=O)(OC[C@H]1O[C@@H](n2ccc(=O)[nH]c2=O)[C@](C)(F)[C@@H]1O)Oc1ccccc1 [SOFOSBUVIR]	–	–	–	> 200 µM	97 µM	–	122 µM	–	–	–	–	–	–	–	–	71.7 mL/min/kg	120 min	3.02	> 100 µM
CC(C)OC(=O)[C@H](C)N[P@](=O)(OC[C@H]1O[C@@H](n2ccc(=O)[nH]c2=O)[C@](Cl)(Br)[C@@H]1OC(=O)[C@@H](N)C(C)C)Oc1cccc2ccccc12	–	–	–	4 µM (≈ 3.04 µg/mL)	–	–	–	–	–	–	–	–	–	–	–	–	> 30 min	–	–

Further lines, with some results ahead:

Drug metabolism [1]	Drug metabolism [2]	Drug metabolism [3]	solubility [4]	Drug metabolism [5]	Drug metabolism [6]	Drug metabolism [7]	Drug metabolism [8]	Drug metabolism [9]	Drug metabolism [10]	Drug metabolism [11]	remaining at 4 h [12]	remaining at 4 h [13]	Drug metabolism [14]	Drug metabolism [15]	CLint scaled [16]	half-life [17]	Compound	logD [18]	CC50 [19]
–	–	–	–	188 µM	–	24 µM	–	–	–	–	–	–	–	–	282 mL/min/kg	> 30 min	COCC(C)C(=O)OC[C@H](C)NP(=O)(OC[C@H]1O[C@@H](n2ccc(=O)[nH]c2=O)[C@](Cl)(Br)[C@@H]1O)Oc1ccccc1 (stereo partly drawn)	–	–
–	–	–	17 µM (≈ 11.2 µg/mL)	81 µM	–	9 µM	–	–	–	–	–	–	–	–	575 mL/min/kg	> 30 min	CC(C)OC(=O)[C@H](C)N[P@](=O)(OC[C@H]1O[C@@H](n2ccc(=O)[nH]c2=O)[C@](Cl)(Br)[C@@H]1O)Oc1cccc2ccccc12	–	–
–	0.188 µg/g	0.187 µg/g	> 200 µM	465 µM	0.329 µg/g	31 µM	–	0.038 µg/g	–	–	87%	84%	–	–	242 mL/min/kg	> 30 min	COCC(C)OC(=O)[C@H](C)NP(=O)(OC[C@H]1O[C@@H](n2ccc(=O)[nH]c2=O)[C@](Cl)(Br)[C@@H]1O)Oc1ccccc1 (stereo partly drawn)	–	–
–	–	–	–	90 µM	–	18 µM	–	–	–	–	–	–	–	–	152 mL/min/kg	> 30 min	CCOC(=O)[C@H](C)N[P@](=O)(OC[C@H]1O[C@@H](n2ccc(=O)[nH]c2=O)[C@](Cl)(Br)[C@@H]1O)Oc1ccccc1	–	–
–	0.244 µg/g	0.252 µg/g	> 200 µM	157 µM	0.713 µg/g	40 µM	–	0.04 µg/g	3.43 µg/g	–	109%	104%	–	4.2 µg/g	192 mL/min/kg	> 30 min	CC(C)OC(=O)C(C)(C)NP(=O)(OC[C@H]1O[C@@H](n2ccc(=O)[nH]c2=O)[C@](Cl)(Br)[C@@H]1O)Oc1ccccc1 (stereo partly drawn)	–	–
